Legend:
[1] = method code SF-AS, from DOI: 10.1016/0048-3575(87)90042-3
[2] = method code SF-GLC, from DOI: 10.1016/0048-3575(87)90042-3

logP [1]	logP [2]	Compound
0.12		Cc1cccc([N+](=O)[O-])c1C(N)=O
3.39		O=C(NC(=O)c1ccccc1)Nc1ccccc1
0.25		NC(=O)c1c(F)cccc1F
4.35		COc1ccccc1C(=O)NC(=O)Nc1ccc(Cl)cc1
1.92		CCNC(=O)NC(=O)c1ccccc1
0.84		COc1ccccc1C(N)=O
	-1.4	CNC(N)=O
0.83		NC(=O)Nc1ccccc1
	-0.7	CNC(=O)NC(C)=O
1.6		CC(=O)NC(=O)Nc1ccccc1
3.75		Cc1cccc([N+](=O)[O-])c1C(=O)NC(=O)Nc1ccc(Cl)cc1
	-0.01	CCNC(=O)NC(C)=O
1.27		CNC(=O)NC(=O)c1ccccc1

From the SangsterLogP compilation
